Here are results for 1 molecule from patent publication US11291659B2, “P38 kinase inhibitors reduce DUX4 and downstream gene expression for the treatment of FSHD” (Fulcrum Therapeutics, Inc., priority 2017, dated 2022).

The assay has as its system DUX4-fl mRNA. The experiment in a line: DUX4-fl mRNA by nested qPCR in FSHD myotubes. Format: cell-based, Human. To be noted: 10, 100, and 1000 nM vs DMSO. The method, then:
In a 6 well plate, 450 μL Buffer RLT Plus was added. Lysate was homogenized by transfer the lysate to a gDNA Eliminator spin column placed in a 2 mL collection tube (supplied), centrifuged for 30 s at ≥8000×g (≥10,000 rpm) and discarded column while saving the flow-through. Then 250 μL of Ethanol (35% final) was added to the flow-through, and mixed well by pipetting, not centrifuged. Then samples were transferred, including any precipitate that may have formed, to an RNeasy MinElute spin column placed in a 2 mL collection tube (supplied). Then centrifuged for 15 s at […]. Flow-through was discarded or collected for Protein precipitation. 700 μL Buffer RW1 to the RNeasy MinElute spin column was added then centrifuge for 15 s at ≥8000×g. and discard the flow-through. DNAse treatment was performed by gently mixing 10 μL DNAseI with 70 μL of Buffer RDD and added directly to the column, incubated at room temperature for 20 min. Then, 700 μL Buffer RW1 (per manufactures specification) to the RNeasy MinElute spin column, centrifuged for 15 s at ≥8000×g. and the flow-through discarded. 500 μL Buffer RPE was added to the RNeasy MinElute spin column centrifuged for 15 s at ≥8000×g and discarded the flow-through. […]
cDNA preparation. […] 10 seconds then read plate on QuantStudio7 as per manufactures instruction (Thermo). […]

Regarding `Cn1c(=O)c(Oc2ccc(F)cc2F)cc2cnc(NC(CCO)CCO)nc21` [Pamapimod, 6-(2,4-difluorophenoxy)-2-((1,5-dihydroxypentan-3-yl)amino)-8-methylpyrido[2,3-d]pyrimidin-7(8H)-one], the “DUX4-fl mRNA levels normalized to POLR2A mRNA” value is listed as “dose-dependently reduced”.
